Source: PubChem BioAssay (NCI)
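Assay format: 96-well plates, 48-hour exposure. GI50 = concentration required for 50% inhibition of growth. At the TGI there is no net growth.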

Key:
Assay in all cases: NCI tumour cell line growth inhibition, 48 h
[1] = tested on: ACHN renal
[2] = tested on: COLO 205 colon
[3] = tested on: HT29 colon
[4] = tested on: IGROV1 ovarian
[5] = tested on: K-562 leukemia
[6] = tested on: M14 melanoma
[7] = tested on: MALME-3M melanoma
[8] = tested on: NCI-H522 lung
[9] = tested on: SF-539 CNS
[10] = tested on: SK-MEL-2 melanoma

Row | Structure (SMILES) | TGI [1] [µM] | TGI [2] [µM] | TGI [3] [µM] | TGI [4] [µM] | TGI [5] [µM] | TGI [6] [µM] | TGI [7] [µM] | TGI [8] [µM] | TGI [9] [µM] | TGI [10] [µM] | GI50 [1] [µM] | GI50 [2] [µM] | GI50 [3] [µM] | GI50 [4] [µM] | GI50 [5] [µM] | GI50 [6] [µM] | GI50 [7] [µM] | GI50 [8] [µM] | GI50 [9] [µM] | GI50 [10] [µM]
1 | COC(=O)Oc1nn(C(=O)OC)c(=O)c2ccccc12 (tested in a mixture with another compound) | > 100 | > 100 | > 100 | > 100 | > 100 | > 100 | > 100 | > 100 | > 100 | > 100 |  |  |  |  |  |  |  |  |  | 
2 | C[CH2][Sn]([CH2]C)([O]C(=O)c1cc(OC)c(OC)c(OC)c1)[O][Sn]([CH2]C)([CH2]C)[O]C(=O)c1cc(OC)c(OC)c(OC)c1 | 40.8 | 43.6 | > 100 | > 100 | > 64.9 | > 78.9 | 32.2 | 5.65 | 74.9 | 35.3 | 21.2 | 20.3 | 48.1 | > 100 | 20.9 | 32.5 | 17.3 | 1.91 | 27.7 | 16.3
3 | COC(=O)C1(C)CCc2c(ccc3ccccc23)C1=O (stereo not drawn) | > 100 | 42.2 | > 100 | 95.7 | > 100 | 83.8 | 69 | 57.3 | > 100 | 64.8 |  |  |  |  |  |  |  |  |  | 
4 | CC1=C(C(=O)Nc2cc(F)c(F)cc2F)C(c2cccc([N+](=O)[O-])c2)C(C(=O)Nc2ccccc2C(F)(F)F)=C(C)N1 (stereo not drawn) | 66.1 | > 100 | 62.8 | > 100 | 36.7 | 55.5 | 77.8 | 34.7 | 53.1 | 42.1 |  |  |  |  |  |  |  |  |  | 
5 | CCCCCNC(=O)C1C(=O)N(CCCCC)C(=O)/C1=N\N (stereo not drawn) | > 100 | > 100 | > 100 | > 100 | > 100 | > 100 | > 100 | > 100 | > 100 | 86.2 |  |  |  |  |  |  |  |  |  | 
6 | O=C(/C=C/c1cccnc1)/C=C/c1cccnc1 | 5.48 | 2.77 | 3.13 | 1.82 |  | 4.62 | 5.31 | 4.69 | 3.62 | 3.58 | 2.19 | 1.35 | 1.3 | 0.463 | 0.383 | 1.84 | 1.97 | 1.77 | 1.75 | 1.43
7 | COc1cc(-c2cn(-c3ccc(Cl)cc3)c(=O)n2-c2ccccc2)cc(OC)c1OC | > 100 | > 100 | > 100 | > 69.2 | > 100 | > 100 | > 94.9 | > 100 | > 100 | > 100 | 34.8 | 51 | 56.3 | 30.6 | > 100 | > 100 | > 49.8 | 45.1 | 61.5 | > 25.9
8 | CCN=C(N)CSS(=O)(=O)O | > 100 | > 100 | > 100 | > 100 | > 100 | > 100 | > 100 | > 100 | > 100 | > 100 |  |  |  |  |  |  |  |  |  | 
9 | O=C1/C(=C\c2ccccc2)CN(C(=O)c2ccccc2F)C/C1=C\c1ccccc1 | 3.46 | 4.03 | 4.17 | 4.46 | > 20.7 | 7.12 | 4.75 | 3.47 | 4.12 | 8.3 | 1.85 | 2.05 | 1.48 | 2.08 | 0.992 | 2.51 | 2.24 | 1.78 | 2 | 2.95
10 | C/C(=N\NC(=S)Nc1ccccc1)c1ccccn1 | 3.75 | 1.48 | 2.54 | 9.26 | 6.93 | 2.17 | 5.39 | 1.61 | 7.24 | 3.79 | 0.0335 | 0.0119 | 0.0203 | < 0.0163 | < 0.01 | 0.0624 | 0.121 | 0.207 | 0.581 | 1.37
11 | CCOC(=O)/C(=C/c1c(-c2ccccc2)[nH]c2ccccc12)C(=O)c1ccc(Cl)cc1 | > 100 | 4.36 | > 100 | > 100 | > 100 | > 100 | > 100 | > 100 | > 100 | 47.5 | 3.62 | 1.98 | 3.96 | 19.9 | 3.42 | 3.07 | 3.09 | 5.86 | 4.23 | 3.99
12 | COc1cccc(C2C3=C(COC3=O)N(CCO)c3cc4c(cc32)CCC4)c1 (stereo not drawn) | > 50 | 0.198 | 0.156 | 0.0692 | 8.81 | 0.208 | > 50 | 0.0165 |  | 0.239 | 0.0622 | 0.0584 | 0.042 | 0.0169 | 0.0279 | 0.0358 | 0.915 | 0.00644 | 0.0457 | 0.0255
13 | COc1ccc(C2=NN(c3ccc(S(N)(=O)=O)cc3)C(c3ccc(Cl)cc3)C2)c(O)c1 (stereo not drawn) | 50.6 | 13.3 | 8.68 | 15.2 | 4.09 | 25.2 | 16.7 | 11.1 | 22.3 | 22.7 | 3.58 | 3.59 | 2.83 | 3.63 | 1.8 | 7.89 | 4.03 | 2.42 | 10.1 | 6.3
14 | CC(=O)C(CN1CCOCC1)C(c1ccccc1)c1c(O)c2ccccc2oc1=O (stereo not drawn) | > 100 | > 100 | > 100 | > 100 | > 100 | > 100 | > 100 | > 100 | > 100 | > 100 |  |  |  |  |  |  |  |  |  | 
15 | COc1ccc(C(NCCNC(c2ccc(OC)c(OC)c2)c2cc3c(cc2O)OCO3)c2cc3c(cc2O)OCO3)cc1OC (stereo not drawn) | 7.95 | > 26.1 | 9.69 | 7.67 | > 28.1 | 8.39 | 15.4 | 3.52 | 6.09 | 15.9 |  |  |  |  |  |  |  |  |  | 
16 | COc1ccc(C=O)c(N(C)C(=O)C(C)(C)C)c1 | > 100 | > 100 | > 100 | > 100 | > 100 | > 100 | > 100 | > 100 | > 100 | > 100 |  |  |  |  |  |  |  |  |  | 

Row | Structure (SMILES) | TGI [1] [µM] | TGI [2] [µM] | TGI [3] [µM] | TGI [4] [µM] | TGI [5] [µM] | TGI [6] [µM] | TGI [7] [µM] | TGI [8] [µM] | TGI [9] [µM] | TGI [10] [µM] | GI50 [1] [µM] | GI50 [2] [µM] | GI50 [3] [µM] | GI50 [4] [µM] | GI50 [5] [µM] | GI50 [6] [µM] | GI50 [7] [µM] | GI50 [8] [µM] | GI50 [9] [µM] | GI50 [10] [µM]
17 | CCN1C(=O)N(CC)C2C1NN=c1s/c(=C\c3ccc([N+](=O)[O-])cc3)c(=O)n12 (stereo not drawn) | > 100 | 11.8 | > 100 | > 32.9 | > 100 | > 43 | > 100 | 6.94 | 2.83 | > 100 | 0.587 | 0.469 | 0.375 | 0.977 | 0.35 | 0.401 | 0.587 | 0.323 | 0.338 | 1.16
18 | COC(=O)C12C3C=CC(O3)C1C1C=CC2O1 (stereo not drawn) | > 100 | > 100 | > 100 | > 100 | > 100 | > 100 | > 100 | > 100 | > 100 | > 100 |  |  |  |  |  |  |  |  |  | 
19 | CCOC(=O)C1=C(O)CSC1=Nc1ccc(N=C2SCC(O)=C2C(=O)OCC)cc1 | 67.4 | 32.5 | 60.2 | 60.6 | > 100 | 52.5 | 40.4 | 32.3 | 43 | 33.7 |  |  |  |  |  |  |  |  |  | 
20 | COC(=O)C1(c2ccc(OC)cc2)NC(c2ccccc2)C2C(=O)N(c3ccc(OC)cc3)C(=O)C21 (stereo not drawn) | > 100 | > 100 | > 100 | > 100 | > 100 | > 100 | > 100 | > 100 | > 100 | > 100 |  |  |  |  |  |  |  |  |  | 
21 | Cn1c(=O)c2c(nc3n2C(CCl)CO3)n(C)c1=O (stereo not drawn) | > 100 | > 100 | > 100 | > 100 | > 100 | > 100 | > 100 | > 100 | > 100 | > 100 |  |  |  |  |  |  |  |  |  | 
22 | Cc1ccc2c(c1)/C(=N\N=C/c1cn(C(C)C)c3ccccc13)C(=O)N2 | > 100 | 2.08 | > 100 | > 100 | > 100 | > 100 | 9.81 | > 100 | > 100 | 23 | 2.95 | 0.324 | 2.82 | 1.37 | 1.96 | 3.95 | 1.38 | 1.05 | 2.9 | 2.3
23 | C#CCSc1nnnn1-c1ccc(Br)c(C)c1 | > 100 | 84.3 | 96 | 9.16 | > 100 | > 100 | 71.8 | 79.4 | 36.5 | 57 | 33.1 | 27.2 | 30.3 | 2.77 | 27.6 | 31.1 | 27.2 | 19.1 | 18.1 | 21.6
24 | CC1(C)OCC(C2OC(On3nnc4ccc(Cl)cc43)C3OC(C)(C)OC23)O1 (stereo not drawn) | > 100 | > 100 | > 100 | > 100 | > 100 | > 100 | > 100 | > 100 | > 100 | > 100 |  |  |  |  |  |  |  |  |  | 
25 | Nc1ccc(C(=O)O)c2[nH]c3ccccc3c(=O)c12 | > 100 | > 100 | > 100 | > 100 | > 100 | > 100 | > 100 | > 100 | > 100 | > 100 |  |  |  |  |  |  |  |  |  | 
26 | Nc1ncn([C@@H]2C=C(CO)C(O)C2O)c(=O)n1 (stereo partly drawn) | > 100 | > 100 | > 100 | > 100 | > 100 | > 100 | > 100 | > 100 | > 100 | > 100 |  |  |  |  |  |  |  |  |  | 
27 | C/C=C(\C)C(=O)O[C@@H]1C=CC(=O)O[C@H]1COC(=O)[C@H](C)O | 19 | 23.7 | 20.9 | 24.6 | > 100 | 30 | 25.9 | 20.7 | 59.4 | 68.6 | 6.16 | 6.57 | 5.93 | 7.46 | 5.21 | 11.1 | 12.1 | 4.96 | 16.5 | 17.5
28 | Cc1ccc(C)c(NC(=O)CCC(=O)CC(=O)C(C)(C)C)c1 | > 100 | > 100 | > 100 | > 100 | > 100 | > 100 | > 100 | > 100 | > 100 | > 100 |  |  |  |  |  |  |  |  |  | 
29 | Nc1cc2c3c(cccc3c1)C(=O)N(CCN1CCN(CCN3C(=O)c4cccc5cc(N)cc(c45)C3=O)CC1)C2=O | > 100 | > 100 | > 100 | > 100 | > 100 | > 100 | > 100 | > 100 | > 100 | > 100 |  |  |  |  |  |  |  |  |  | 
30 | COc1cc2c(cc1OCCCN1CCN(CCCOc3cc4c(cc3OC)C(=O)C3CCC[C@H]3C=N4)CC1)N=C[C@@H]1CCCC1C2=O (stereo partly drawn) | > 100 | > 75.4 | > 68.8 | > 23.6 | > 100 | 22.7 | 21.5 | > 29.6 | 16.4 | 4.8 | 55.7 | 9.29 | 23.3 | 3.27 | 2.09 | 6.25 | 2.83 | 0.446 | 0.614 | 1.71
31 | Nc1nccc(C#Cc2cncnc2Nc2ccc(OCc3cccc(F)c3)c(Cl)c2)n1 | 10.6 | 8.6 | 9.05 | 20 | > 25 | 9.43 | 13.1 | 5.88 | 14.1 | 9.34 | 4.2 | 3.96 | 4.57 | 5.1 | 4.24 | 4.51 | 5.26 | 2.23 | 5.58 | 4.98
